Assays:
[1] = Half life in iv and po dosed rat; type: ADME, organism-based; conditions: in vivo
[2] = Clearance in iv and po dosed rat; type: ADME, organism-based; conditions: in vivo
[3] = Volume of distribution at steady state in iv and po dosed rat; type: ADME, organism-based; conditions: in vivo, read-out: Vdss
[4] = Oral bioavailability in rat; type: ADME, organism-based; conditions: in vivo
[5] = target: Beta-2 adrenergic receptor (Homo sapiens, UniProt P07550); test: Inhibition of beta2 adrenergic receptor
Sequence of Beta-2 adrenergic receptor (P07550 whole entry): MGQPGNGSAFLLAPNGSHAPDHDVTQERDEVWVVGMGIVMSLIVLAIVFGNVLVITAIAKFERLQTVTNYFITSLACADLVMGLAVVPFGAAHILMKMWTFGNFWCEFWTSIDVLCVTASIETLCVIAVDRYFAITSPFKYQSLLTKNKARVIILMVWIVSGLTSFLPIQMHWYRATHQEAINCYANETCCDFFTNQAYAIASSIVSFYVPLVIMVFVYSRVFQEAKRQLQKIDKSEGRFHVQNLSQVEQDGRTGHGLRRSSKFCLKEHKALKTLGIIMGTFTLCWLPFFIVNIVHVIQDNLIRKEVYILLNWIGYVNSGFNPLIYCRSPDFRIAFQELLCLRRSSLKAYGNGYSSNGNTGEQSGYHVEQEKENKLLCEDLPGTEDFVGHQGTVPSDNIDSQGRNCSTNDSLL

[6] = Mean residence time in iv and po dosed rat; type: ADME, organism-based; conditions: in vivo
[7] = target: T1, Extracellular calcium-sensing receptor (Homo sapiens, UniProt P41180); test: Antagonist activity at human calcium receptor expressed in HEK293 4.0-7 cells assessed as inhibition of intracellular calcium release by FLIPR assay; type: functional, cell-based
T1 sequence (P41180 whole entry): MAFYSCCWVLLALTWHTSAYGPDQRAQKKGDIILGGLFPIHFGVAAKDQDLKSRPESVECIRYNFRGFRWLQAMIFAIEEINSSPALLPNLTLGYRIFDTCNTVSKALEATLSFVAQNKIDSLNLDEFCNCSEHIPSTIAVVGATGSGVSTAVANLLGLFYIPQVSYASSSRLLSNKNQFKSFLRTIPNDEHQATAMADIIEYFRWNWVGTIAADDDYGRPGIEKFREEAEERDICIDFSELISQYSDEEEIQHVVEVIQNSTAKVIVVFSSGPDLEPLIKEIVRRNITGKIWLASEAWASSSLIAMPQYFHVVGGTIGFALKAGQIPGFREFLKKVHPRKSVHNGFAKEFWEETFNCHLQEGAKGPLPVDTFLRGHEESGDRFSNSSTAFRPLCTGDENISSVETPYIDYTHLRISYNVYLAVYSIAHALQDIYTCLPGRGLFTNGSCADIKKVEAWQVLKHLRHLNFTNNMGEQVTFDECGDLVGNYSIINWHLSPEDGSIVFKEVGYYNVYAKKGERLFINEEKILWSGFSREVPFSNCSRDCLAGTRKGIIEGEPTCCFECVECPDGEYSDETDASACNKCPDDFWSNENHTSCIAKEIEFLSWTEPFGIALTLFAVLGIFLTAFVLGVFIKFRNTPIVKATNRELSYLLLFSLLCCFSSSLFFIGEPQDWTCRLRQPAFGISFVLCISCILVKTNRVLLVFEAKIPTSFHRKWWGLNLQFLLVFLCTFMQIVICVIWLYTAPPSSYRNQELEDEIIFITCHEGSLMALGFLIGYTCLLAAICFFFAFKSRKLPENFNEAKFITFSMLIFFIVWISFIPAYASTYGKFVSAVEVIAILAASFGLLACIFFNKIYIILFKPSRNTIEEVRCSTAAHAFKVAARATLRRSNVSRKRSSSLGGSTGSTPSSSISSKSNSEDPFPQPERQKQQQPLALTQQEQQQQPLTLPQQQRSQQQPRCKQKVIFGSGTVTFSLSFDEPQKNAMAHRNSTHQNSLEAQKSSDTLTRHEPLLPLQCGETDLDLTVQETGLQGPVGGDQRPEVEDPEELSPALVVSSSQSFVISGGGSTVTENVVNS

[8] = target: T1, Extracellular calcium-sensing receptor; test: Displacement of [3H](2-(2-hydroxyphenyl)-6-methyl-5-(2-methylpropyl)-3-(2-phenylethyl)-4(3H)-pyrimidinone) from human calcium receptor expressed in human HEK293 4.0-7 cells by liquid scintillation counting; type: cell-based
[9] = target: Cytochrome P450 2D6 (Homo sapiens, UniProt P10635); test: Inhibition of CYP2D6; type: ADME
Sequence of Cytochrome P450 2D6 (P10635 whole entry): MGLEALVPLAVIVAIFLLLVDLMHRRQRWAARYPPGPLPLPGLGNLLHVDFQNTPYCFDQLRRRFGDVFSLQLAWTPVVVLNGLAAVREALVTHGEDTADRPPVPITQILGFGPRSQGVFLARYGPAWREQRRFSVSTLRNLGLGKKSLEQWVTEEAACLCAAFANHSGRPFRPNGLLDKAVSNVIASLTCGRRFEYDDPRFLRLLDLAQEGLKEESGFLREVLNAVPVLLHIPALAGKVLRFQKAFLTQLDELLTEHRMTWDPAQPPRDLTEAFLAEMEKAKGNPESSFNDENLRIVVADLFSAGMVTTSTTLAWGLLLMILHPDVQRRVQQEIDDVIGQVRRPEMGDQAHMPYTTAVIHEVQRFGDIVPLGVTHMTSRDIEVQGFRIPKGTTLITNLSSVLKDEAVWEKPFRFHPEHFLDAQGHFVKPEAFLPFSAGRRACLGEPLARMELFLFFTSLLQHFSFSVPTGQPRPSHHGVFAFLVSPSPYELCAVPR

[10] = target: Voltage-gated inwardly rectifying potassium channel KCNH2 (Homo sapiens, UniProt Q12809)
Sequence of Voltage-gated inwardly rectifying potassium channel KCNH2 (Q12809 whole entry): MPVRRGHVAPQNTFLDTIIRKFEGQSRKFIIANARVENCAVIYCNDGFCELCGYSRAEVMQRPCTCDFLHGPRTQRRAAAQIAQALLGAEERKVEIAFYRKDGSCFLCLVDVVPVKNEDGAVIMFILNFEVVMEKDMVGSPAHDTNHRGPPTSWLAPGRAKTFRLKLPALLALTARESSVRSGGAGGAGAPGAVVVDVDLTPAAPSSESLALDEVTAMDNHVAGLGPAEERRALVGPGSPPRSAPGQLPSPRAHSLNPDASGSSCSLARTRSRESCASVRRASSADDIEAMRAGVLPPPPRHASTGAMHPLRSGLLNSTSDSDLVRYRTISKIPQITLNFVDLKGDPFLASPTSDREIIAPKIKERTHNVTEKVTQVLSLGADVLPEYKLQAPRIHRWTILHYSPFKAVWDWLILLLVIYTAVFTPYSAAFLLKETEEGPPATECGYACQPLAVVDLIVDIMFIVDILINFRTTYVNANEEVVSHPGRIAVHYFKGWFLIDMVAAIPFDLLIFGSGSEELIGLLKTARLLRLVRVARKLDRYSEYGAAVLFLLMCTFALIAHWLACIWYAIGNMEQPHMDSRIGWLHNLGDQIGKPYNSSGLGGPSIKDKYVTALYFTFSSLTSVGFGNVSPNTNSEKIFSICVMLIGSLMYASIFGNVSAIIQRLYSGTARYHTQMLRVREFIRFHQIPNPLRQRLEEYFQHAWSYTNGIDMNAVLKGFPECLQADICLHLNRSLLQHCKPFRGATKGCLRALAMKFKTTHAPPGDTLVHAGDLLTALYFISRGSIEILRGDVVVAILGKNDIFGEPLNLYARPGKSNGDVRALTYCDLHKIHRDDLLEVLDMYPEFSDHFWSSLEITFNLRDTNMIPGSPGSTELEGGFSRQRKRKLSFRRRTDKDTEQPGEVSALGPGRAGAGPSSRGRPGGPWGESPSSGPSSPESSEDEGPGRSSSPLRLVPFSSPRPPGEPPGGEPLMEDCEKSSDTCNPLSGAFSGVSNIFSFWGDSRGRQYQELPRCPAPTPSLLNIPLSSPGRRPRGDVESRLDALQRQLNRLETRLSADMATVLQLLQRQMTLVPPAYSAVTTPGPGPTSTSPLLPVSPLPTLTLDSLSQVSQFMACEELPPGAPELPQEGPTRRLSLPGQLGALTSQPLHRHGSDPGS

[11] = Half life in iv and po dosed dog; type: ADME, organism-based, Canis lupus familiaris; conditions: in vivo
[12] = tested on: Rattus norvegicus; test: Oral bioavailability in rat assessed as (R)-3-(3-cyano-4-(2-hydroxy-3-(2-methyl-1-(naphthalen-2-yl)propan-2-ylamino)propoxy)phenyl)propanoic acid levels; type: ADME, organism-based; conditions: in vivo
[13] = tested on: Canis familiaris; test: Oral bioavailability in dog assessed as (R)-3-(3-cyano-4-(2-hydroxy-3-(2-methyl-1-(naphthalen-2-yl)propan-2-ylamino)propoxy)phenyl)propanoic acid levels; type: ADME, organism-based, Canis lupus familiaris; conditions: in vivo
[14] = tested on: Canis familiaris; test: Tmax in dog assessed as (R)-3-(3-cyano-4-(2-hydroxy-3-(2-methyl-1-(naphthalen-2-yl)propan-2-ylamino)propoxy)phenyl)propanoic acid levels at 23.4 mg/kg, po; type: ADME, organism-based, Canis lupus familiaris; parameters: dose 23.4 mg/kg, route oral; conditions: in vivo
[15] = tested on: Canis familiaris; test: Cmax in dog assessed as (R)-3-(3-cyano-4-(2-hydroxy-3-(2-methyl-1-(naphthalen-2-yl)propan-2-ylamino)propoxy)phenyl)propanoic acid levels at 23.4 mg/kg, po; type: ADME, organism-based, Canis lupus familiaris; parameters: dose 23.4 mg/kg, route oral; conditions: in vivo
[16] = Mean residence time in iv and po dosed dog; type: ADME, organism-based, Canis lupus familiaris; conditions: in vivo
[17] = target: Sodium-dependent serotonin transporter (Homo sapiens, UniProt P31645); test: Inhibition of SERT
Sequence of Sodium-dependent serotonin transporter (P31645 whole entry): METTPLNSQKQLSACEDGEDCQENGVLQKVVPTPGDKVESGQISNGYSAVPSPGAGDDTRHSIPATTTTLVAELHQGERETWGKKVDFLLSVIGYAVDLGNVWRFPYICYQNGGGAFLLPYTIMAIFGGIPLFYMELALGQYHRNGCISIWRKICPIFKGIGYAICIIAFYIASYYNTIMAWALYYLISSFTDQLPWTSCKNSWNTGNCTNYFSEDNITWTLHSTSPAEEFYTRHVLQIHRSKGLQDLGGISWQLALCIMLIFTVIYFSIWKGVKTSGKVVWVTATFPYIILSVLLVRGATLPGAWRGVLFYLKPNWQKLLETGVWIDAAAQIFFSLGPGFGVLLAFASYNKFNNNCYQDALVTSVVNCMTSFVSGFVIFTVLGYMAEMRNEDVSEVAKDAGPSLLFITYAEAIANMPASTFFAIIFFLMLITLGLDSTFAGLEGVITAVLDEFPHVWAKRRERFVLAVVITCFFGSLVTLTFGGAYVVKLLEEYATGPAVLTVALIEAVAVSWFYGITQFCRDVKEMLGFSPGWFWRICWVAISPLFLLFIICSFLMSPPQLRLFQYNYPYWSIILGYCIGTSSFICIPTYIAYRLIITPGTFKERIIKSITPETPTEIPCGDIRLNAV

[18] = target: Sodium-dependent noradrenaline transporter (Homo sapiens, UniProt P23975); test: Inhibition of NET
Sequence of Sodium-dependent noradrenaline transporter (P23975 whole entry): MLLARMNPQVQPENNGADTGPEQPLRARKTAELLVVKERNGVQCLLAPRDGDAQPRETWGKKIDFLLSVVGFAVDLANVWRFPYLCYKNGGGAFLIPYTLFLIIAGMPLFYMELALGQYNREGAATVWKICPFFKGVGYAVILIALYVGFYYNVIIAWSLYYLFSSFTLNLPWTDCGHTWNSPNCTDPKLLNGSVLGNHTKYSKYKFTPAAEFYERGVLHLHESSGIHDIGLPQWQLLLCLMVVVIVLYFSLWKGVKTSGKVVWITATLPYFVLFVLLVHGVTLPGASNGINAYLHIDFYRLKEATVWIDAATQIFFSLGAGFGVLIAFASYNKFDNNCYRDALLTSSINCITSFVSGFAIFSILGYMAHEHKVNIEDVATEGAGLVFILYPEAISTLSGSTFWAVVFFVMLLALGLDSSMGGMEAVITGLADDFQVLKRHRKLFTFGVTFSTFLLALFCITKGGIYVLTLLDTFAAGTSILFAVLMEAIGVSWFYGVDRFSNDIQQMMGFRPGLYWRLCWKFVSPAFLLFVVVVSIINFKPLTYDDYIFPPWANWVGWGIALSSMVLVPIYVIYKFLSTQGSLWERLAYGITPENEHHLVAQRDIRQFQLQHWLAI

[19] = target: Sodium-dependent dopamine transporter (Homo sapiens, UniProt Q01959); test: Inhibition of DAT
Sequence of Sodium-dependent dopamine transporter (Q01959 whole entry): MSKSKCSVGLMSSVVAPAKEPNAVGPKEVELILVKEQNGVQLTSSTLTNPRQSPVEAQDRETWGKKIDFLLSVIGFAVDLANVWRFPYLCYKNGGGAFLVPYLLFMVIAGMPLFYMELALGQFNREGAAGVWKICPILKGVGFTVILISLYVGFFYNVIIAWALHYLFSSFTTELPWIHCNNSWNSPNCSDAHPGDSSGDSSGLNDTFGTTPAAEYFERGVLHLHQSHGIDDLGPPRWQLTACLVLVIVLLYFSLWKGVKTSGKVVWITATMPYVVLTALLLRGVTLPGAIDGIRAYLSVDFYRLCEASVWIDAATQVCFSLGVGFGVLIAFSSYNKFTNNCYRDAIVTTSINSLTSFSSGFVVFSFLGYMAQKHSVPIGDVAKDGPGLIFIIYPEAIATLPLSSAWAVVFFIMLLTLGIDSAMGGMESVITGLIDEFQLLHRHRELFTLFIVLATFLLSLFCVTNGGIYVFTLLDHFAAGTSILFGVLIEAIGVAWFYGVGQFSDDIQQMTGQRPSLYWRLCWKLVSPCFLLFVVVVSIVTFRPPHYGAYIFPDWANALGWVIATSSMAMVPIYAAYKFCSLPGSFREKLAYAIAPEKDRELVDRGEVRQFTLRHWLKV

[20] = Clearance in iv and po dosed dog; type: ADME, organism-based, Canis lupus familiaris; conditions: in vivo
[21] = Volume of distribution at steady state in iv and po dosed dog; type: ADME, organism-based, Canis lupus familiaris; conditions: in vivo, read-out: Vdss
[22] = tested on: Rattus norvegicus; test: Metabolic stability in intraportal dosed rat assessed as hepatic first pass; type: ADME, organism-based; conditions: in vivo, other
[23] = tested on: Canis familiaris; test: Metabolic stability in intraportal dosed dog assessed as hepatic first pass; type: ADME, organism-based, Canis lupus familiaris; conditions: in vivo, other

Structure (SMILES) | half-life [1] [min] | clearance [2] [mL/min/kg] | Vd [3] [L/kg] | bioavailability [4] [%] | IC50 [5] [nM] | MRT [6] [min] | IC50 [7] [nM] | IC50 [8] [nM] | IC50 [9] [nM] | IC50 [10] [nM] | half-life [11] [min] | MRT [16] [min] | IC50 [17] [nM] | IC50 [18] [nM] | IC50 [19] [nM] | other results
CC(C)(Cc1ccc2ccccc2c1)NC[C@@H](O)COc1cccc(Cl)c1C#N | 126 | 73.8 | 11 | 11.4 | 4300 | 150 | 58 | 3 | 45 | 3 | – | – | – | – | – | –
CCOC(=O)CCc1ccc(OC[C@H](O)CNC(C)(C)Cc2ccc3ccccc3c2)c(C#N)c1.Cl | 52.8 | – | – | – | 14000 | 42 | 34 | 3 | 3000 | – | 73.8 | 82.2 | 78 | 37 | 59 | F [12]: 9.5%; F [13]: 9.1%; Tmax [14]: 30 min; Cmax [15]: 597 ng/mL
COc1ccc(CC(C)(C)NC[C@H](O)COc2cccc3[nH]c(=O)[nH]c23)cc1 | – | – | – | – | 1.3 | – | 11000 | 31800 | 1260 | 11.8 | – | – | – | – | – | –
CC(C)(Cc1ccc2ccccc2c1)NC[C@@H](O)COc1ccccc1C#N | – | – | – | – | – | – | 18 | 3 | 100 | 3.2 | – | – | 3 | 3 | 2 | –
CC(C)(Cc1ccc2ccccc2c1)NC[C@@H](O)COc1ccc(CCC(=O)O)cc1C#N | 33.6 | 63.6 | 1.18 | 0.29 | > 30000 | 19.2 | 200 | 22 | > 50000 | 32.7 | 73.8 | 51 | 23 | 5400 | 2800 | clearance [20]: 15.4 mL/min/kg; Vd [21]: 0.78 L/kg; Activity [22]: 68%; Activity [23]: 90%
CC(C)(Cc1ccc2ccccc2c1)NC[C@@H](O)COc1ccc(CCC(=O)O)cc1 | 24 | 118 | 2.1 | 4 | > 30000 | 18 | > 25000 | 4800 | 52000 | 38.5 | – | – | 68 | 16000 | 3700 | –

— ChEMBL document CHEMBL1154613, “Antagonists of the calcium receptor. 2. Amino alcohol-based parathyroid hormone secretagogues” (J Med Chem, 2009)
